Source: patent US5919780A, “Tricyclic inhibitors of protein farnesyltransferase” (Warner Lambert Company, priority 1997, dated 1999)
pIC50: −log10 of the molar value. Like-named read-outs stand apart in the source and are kept apart here.

Experiments:
Ras protein = test: Gel Shift Assay against ras protein; assay type: cell-based; settings: ras-transformed cells, 18-hour incubation; read-out: Gel Shift Minimum Effective Dose
Procedure: Twenty-four hours after planting 2×10^6 ras-transformed cells per treatment condition, the farnesylation inhibitor is added at varying concentrations. Following an 18-hour incubation period, cells are lysed in phosphate-buffered saline containing 1% Triton X-100, 0.5% sodium deoxycholate, and 0.1% SDS, pH 7.4 in the presence of several protease inhibitors (PMSF, antipain, leupeptin, pepstatin A, and aprotinin all at 1 μg/mL). Ras protein is immunoprecipitated from the supernatants by the addition of 3 μg v-H-ras Ab-2 (Y13-259 antibody from oncogene Science). After overnight immunoprecipitation, 30 μL of a 50% protein G-Sepharose slurry (Pharmacia) is added followed by 45-minute incubation. Pellets are resuspended in 2× tris-glycine loading buffer (Novex) containing 5% B-mercaptoethanol and then denatured by 5 minutes boiling prior to electrophoresis on 14% Tris-glycine SDS gels. Using Western transfer techniques, proteins are transferred to nitrocellulose membranes followed by blocking in blocking buffer. Upon overnight incubation with primary antibody (pan-ras Ab-2 from Oncogene Science), an antimouse HRP conjugate secondary antibody (Amersham) is employed for detection of the ras protein. Blots are developed using ECL techniques (Amersham).

[1] = molecular target: T1, rat brain farnesyl protein transferase (Rattus norvegicus, UniProt Q02293+Q04631); test: Farnesyl Protein Transferase Inhibition (PFT/FPT inhibitory activity); assay type: biochemical
T1 construct: 40-fold purified rat brain farnesyl protein transferase; from tissue; host or cells: rat brain
Procedure: The protein:farnesyltransferase (PFT) or farnesyl protein transferase (FPT) inhibitory activity of compounds of Formula I was assayed in HEPES buffer (pH 7.4) containing 5 mM potassium phosphate and 20 μM ZnCl2. The solution also contained 7 mM DTT, 1.2 mM MgCl2, 0.1 mM leupeptin, 0.1 mM pepstatin, and 0.2 mM phenylmethylsulfonyl fluoride. Assays were performed in 96 well plates (Wallec) and employed solutions composed of varying concentrations of a compound of Formula I in 100% DMSO. Upon addition of both substrates, radiolabeled farnesyl pyrophosphate ([1-^3 H], specific activity 15-30 Ci/mmol, final concentration 0.12 μM) and (biotinyl)-Ahe-Tyr-Lys-Cys-Val-Ile-Met peptide (final concentration 0.2 μM), the enzyme reaction was started by addition of 40-fold purified rat brain farnesyl protein transferase. After incubation at 37° for 30 minutes, the reaction was terminated by diluting the reaction 2.5-fold with a stop buffer containing 1.5M magnesium acetate, 0.2M H3 PO4, 0.5% BSA, and strepavidin beads (Amersham) at a concentration of 1.3 mg/mL. After allowing the plate to settle for 30 minutes at room temperature, radioactivity was quantitated on a microBeta counter (Model 1450, Wallec). Compounds of Formula I show IC50 values of 0.8 to 60 μM in this assay and are thus valuable inhibitors of protein:farnesyltransferase enzyme which may be used in the medical treatment of tissue proliferative diseases, including cancer and restenosis. The assay was also carried out without 5 mM potassium phosphate.

[2] = Hepes with 5 mM PO4^-3, read-out: Farnesyl Protein Transferase Inhibition Hepes/5 mM PO4^-3 IC50
[3] = Hepes, without 5 mM phosphate, read-out: Farnesyl Protein Transferase Inhibition Hepes IC50

## c1ccc(COc2ccc3c(c2)N=C(NCc2cccnc2)c2ccccc2N3)cc1 [Example 12, (8-Benzyloxy-5H-dibenzo[b,e][1,4]diazepin-11-yl)-pyridin-3-ylmethyl-amine]
Ras protein
  minimal effective concentration: > 50 µM
[1]; [2]
  pIC50: 4.43
[1]; [3]
  pIC50: < 4.30

## c1cncc(CNC2=Nc3ccccc3Nc3ccccc32)c1 [Example 7, (5H-Dibenzo[b,e][1,4]diazepin-11-yl)-pyridin-3-ylmethyl-amine]
Ras protein
  minimal effective concentration: 50 µM
[1]; [2]
  pIC50: 4.92
[1]; [3]
  pIC50: 4.64

## O=S1(=O)c2ccc(Cl)cc2N=C(NCc2cccnc2)c2ccccc21 [Example 17, (8-Chloro-5,5-dioxo-5H-5λ^6-dibenzo[b,f][1,4]thiazepin-11-yl)-pyridin-3-ylmethyl-amine]
[1]; [2]
  pIC50: 5.21
[1]; [3]
  pIC50: 5.30

## c1cncc(CNC2=Nc3ccccc3Nc3ncccc32)c1 [Example 14, (11H-Benzo[b]pyrido[2,3-e][1,4]diazepin-5-yl)-pyridin-3-ylmethyl-amine]
Ras protein
  minimal effective concentration: 50 µM
[1]; [2]
  pIC50: 4.77
[1]; [3]
  pIC50: 4.85

## Cc1ccc2c(c1)N=C(NCc1cccnc1)c1ccccc1N2 [Example 8, (8-Methyl-5H-dibenzo[b,e][1,4]diazepin-11-yl)-pyridin-3-ylmethyl-amine]
[1]; [2]
  pIC50: 4.51
[1]; [3]
  pIC50: 4.62

## Clc1ccc2c(c1)Nc1ccccc1C(NCc1cccnc1)=N2 [Example 6, (7-Chloro-5H-dibenzo[b,e][1,4]diazepin-11-yl)pyridin-3-ylmethyl-amine]
Ras protein
  minimal effective concentration: 50 µM
[1]; [2]
  pIC50: 5.25
[1]; [3]
  pIC50: 5.26

## Clc1ccc2c(c1)N=C(NCCn1ccnc1)c1ccccc1N2 [Example 4, (8-Chloro-5H-dibenzo[b,e][1,4]diazepin-11-yl)-(2-imidazol-1-yl-ethyl)-amine]
Ras protein
  minimal effective concentration: 5 µM
[1]; [2]
  pIC50: 5.60
[1]; [3]
  pIC50: 5.52

## Clc1ccc2c(c1)N=C(NCc1cccnc1)c1ccccc1N2 [Example 1, (8-Chloro-5H-dibenzo[b,e][1,4]diazepin-11-yl)pyridin-3-ylmethyl-amine]
Ras protein
  minimal effective concentration: 50 µM
[1]; [2]
  pIC50: 5.30
[1]; [3]
  pIC50: 5.43

## Clc1cc2c(cc1Cl)Nc1ccccc1C(NCc1cccnc1)=N2 [Example 11, (7,8-Dichloro-5H-dibenzo[b,e][1,4]diazepin-11-yl)-pyridin-3-ylmethyl-amine]
Ras protein
  minimal effective concentration: 50 µM
[1]; [2]
  pIC50: 5.80
[1]; [3]
  pIC50: 6.10

## Brc1ccc2c(c1)N=C(NCc1cccnc1)c1ccccc1N2 [Example 10, (8-Bromo-5H-dibenzo[b,e][1,4]diazepin-11-yl)-pyridin-3-ylmethyl-amine]
[1]; [2]
  pIC50: 4.44
[1]; [3]
  pIC50: 5.22

## Clc1ccc2c(c1)N=C(NCCc1cnc[nH]1)c1ccccc1N2 [Example 2, (8-Chloro-5H-dibenzo[b,e][1,4]diazepin-11-yl)-[2-(3H-imidazol-4-yl)-ethyl]-amine]
Ras protein
  minimal effective concentration: 25 µM
[1]; [2]
  pIC50: 5.52
[1]; [3]
  pIC50: 5.62

## Clc1ccc2c(c1)N=C(NCc1cccnc1)c1ccccc1O2 [Example 18, (8-Chloro-dibenzo[b,f][1,4]oxazepin-11-yl)-pyridin-3-ylmethyl-amine]
[1]; [2]
  pIC50: 4.78
[1]; [3]
  pIC50: 5.06

## Clc1ccc2c(c1)N=C(NCc1cccnc1)c1ccccc1S2 [Example 16, (8-Chloro-dibenzo[b,f][1,4]thiazepin-11-yl)pyridin-3-ylmethyl-amine]
[1]; [2]
  pIC50: 4.66
[1]; [3]
  pIC50: 5.01

## CN1c2ccc(Cl)cc2N=C(NCc2cccnc2)c2ccccc21 [Example 15, (8-Chloro-5-methyl-5H-dibenzo[b,e][1,4]diazepin-11-yl)-pyridin-3-ylmethyl-amine]
Ras protein
  minimal effective concentration: > 25 µM
[1]; [2]
  pIC50: 4.77
[1]; [3]
  pIC50: 4.91

## COc1cc2c(cc1OC)C(NCc1cccnc1)=Nc1cc(Cl)c(Cl)cc1N2 [Example 13, (7,8-Dichloro-2,3-dimethoxy-5H-dibenzo[b,e][1,4]diazepin-11-yl)-pyridin-3-ylmethyl-amine]
[1]; [2]
  pIC50: 4.30
[1]; [3]
  pIC50: 4.52

## Clc1ccc2c(c1)N=C(NCCCn1ccnc1)c1ccccc1N2 [Example 5, (8-Chloro-5H-dibenzo[b,e][1,4]diazepin-11-yl)-(3-imidazol-1-yl-propyl)-amine]
Ras protein
  minimal effective concentration: 2.5 µM
[1]; [2]
  pIC50: 5.35
[1]; [3]
  pIC50: 5.17

## Clc1ccc2c(c1)N=C(NCCc1cccnc1)c1ccccc1N2 [Example 3, (8-Chloro-5H-dibenzo[b,e][1,4]diazepin-11-yl)-(2-pyridin-3-yl-ethyl)-amine]
Ras protein
  minimal effective concentration: > 50 µM
[1]; [2]
  pIC50: 4.24
[1]; [3]
  pIC50: 4.44

## COc1ccc2c(c1)N=C(NCc1cccnc1)c1ccccc1N2 [Example 9, (8-Methoxy-5H-dibenzo[b,e][1,4]diazepin-11-yl)-pyridin-3-ylmethyl-amine]
Ras protein
  minimal effective concentration: 50 µM
[1]; [2]
  pIC50: 4.80
[1]; [3]
  pIC50: 4.57
